Measured values from PubChem BioAssay AID328 (DTP/NCI, 2004).
Where “and” joins values, the source holds several entries; their conditions need not be identical. Equal entries are not always repeated. Inconclusive results and toxic doses are left out.

Tested on: BDF1 mice, P388 leukemia ip, median survival T/C
Assay: NCI In Vivo Anticancer Drug Screen. Data for tumor model P388 Leukemia (intraperitoneal) in B6D2F1 (BDF1) mice
Conditions: endpoint: median survival time, higher = longer survival
Method in brief: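 Compound-treated tumour-bearing mice were compared with vehicle-treated controls. Survival was recorded, and the value is the treated-group measurement divided by the control-group measurement (T/C).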

[1] = dose: 12.5 mg/kg/injection, schedule: Q01DX009 (ip), vehicle: saline with Tween-80
[2] = dose: 25.0 mg/kg/injection, schedule: Q01DX009 (ip), vehicle: saline with Tween-80
[3] = dose: 50.0 mg/kg/injection, schedule: Q01DX009 (ip), vehicle: saline with Tween-80
[4] = dose: 100.0 mg/kg/injection, schedule: Q04DX003 (ip), vehicle: saline with Tween-80
[5] = dose: 200.0 mg/kg/injection, schedule: Q04DX003 (ip), vehicle: saline with Tween-80
[6] = dose: 400.0 mg/kg/injection, schedule: Q04DX003 (ip), vehicle: saline with Tween-80
[7] = dose: 100.0 mg/kg/injection, schedule: Q01DX009 (ip), vehicle: saline with Tween-80
[8] = dose: 200.0 mg/kg/injection, schedule: Q04DX003 (ip), vehicle: Klucel (hydroxypropylcellulose) (HPC)
[9] = dose: 400.0 mg/kg/injection, schedule: Q04DX003 (ip), vehicle: Klucel (hydroxypropylcellulose) (HPC)
[10] = dose: 25.0 mg/kg/injection, schedule: Q04DX003 (ip), vehicle: saline
[11] = dose: 50.0 mg/kg/injection, schedule: Q04DX003 (ip), vehicle: saline

In the case of `Clc1cccc(N=c2cc3oc4ccccc4nc-3cc2Nc2cccc(Cl)c2)c1`, the T/C [1] is reported as 96 % of control, the T/C [2] is reported as 99 % of control and the T/C [3] is reported as 93 % of control.
In the case of `COC(=O)C1CC(O)CN1C(=O)c1c2nc3c(C(=O)N4CC(O)CC4C(=O)OC)ccc(C)c3oc-2c(C)c(=O)c1N` (stereo not given), the T/C [4] is reported as 96 % of control, the T/C [5] is reported as 100 % of control and the T/C [6] is reported as 114 % of control.
For `CC(C)(C)OC(=O)NC(CCCNC(=O)OCc1ccccc1)C(=O)NC(CCCNC(=O)OCc1ccccc1)C(=O)OCc1ccccc1` (stereo not given), the T/C (dose: 50.0 mg/kg/injection, schedule: Q01DX005 (ip), vehicle: saline with Tween-80) was 91 % of control, the T/C (dose: 100.0 mg/kg/injection, schedule: Q01DX005 (ip), vehicle: saline with Tween-80) was 92 % of control and the T/C (dose: 200.0 mg/kg/injection, schedule: Q01DX005 (ip), vehicle: saline with Tween-80) was 95 % of control.
For `Nc1ccc(S(=O)(=O)Nc2ccc([N+](=O)[O-])cc2)cc1`, the T/C [1] was 87 % of control, the T/C [2] was 96 % of control and 105 % of control and the T/C (dose: 25.0 mg/kg/injection, schedule: Q04DX003 (ip), vehicle: saline with Tween-80) was 102 % of control. For the same compound, the T/C [3] was 89 % of control, the T/C (dose: 50.0 mg/kg/injection, schedule: Q04DX003 (ip), vehicle: saline with Tween-80) was 99 % of control and the T/C [7] was 87 % of control and 93 % of control. The T/C [4] was 105 % of control, the T/C [5] was 112 % of control and the T/C [6] was 114 % of control.
With `CSC1CCCC(=O)C1` (stereo not given) the T/C (dose: 12.5 mg/kg/injection, schedule: Q01DX009 (ip), vehicle: Klucel (hydroxypropylcellulose) (HPC)) was 100 % of control, the T/C (dose: 25.0 mg/kg/injection, schedule: Q01DX009 (ip), vehicle: Klucel (hydroxypropylcellulose) (HPC)) was 105 % of control and the T/C (dose: 100.0 mg/kg/injection, schedule: Q04DX003 (ip), vehicle: Klucel (hydroxypropylcellulose) (HPC)) was 100 % of control. The T/C [8] was 95 % of control and the T/C [9] was 90 % of control.
With `N/N=C(/c1ccccc1)c1nc(-c2ccccc2)n[nH]c1=O` the T/C [3] was 111 % of control, the T/C [7] was 106 % of control and the T/C (dose: 200.0 mg/kg/injection, schedule: Q01DX009 (ip), vehicle: saline with Tween-80) was 112 % of control.
In the case of `Cc1ccc(S(=O)(=O)[O][Pb]([CH3])([CH3])[CH3])cc1`, the T/C (dose: 1.5 mg/kg/injection, schedule: Q01DX009 (ip), vehicle: saline) is reported as 103 % of control.
`CN(C)CCC(=O)C(=Cc1ccc(Cl)c(Cl)c1)C(=O)CCN(C)C` was tested, and the T/C (dose: 50.0 mg/kg/injection, schedule: Q01DX005 (ip), vehicle: saline) was 109 % of control and the T/C (dose: 100.0 mg/kg/injection, schedule: Q01DX005 (ip), vehicle: saline) was 114 % of control.
With `CCC(C(=O)O)C(=O)O.[NH-]CC[NH-].[Pt+2]` the T/C [10] was 100 % of control, the T/C (dose: 33.0 mg/kg/injection, schedule: Q04DX003 (ip), vehicle: saline) was 118 % of control and the T/C [11] was 154 % of control.
In the case of `CCOC(=O)C1OC12CCCCC2` (stereo not given), the T/C (dose: 100.0 mg/kg/injection, schedule: Q01DX001 (ip), vehicle: Klucel (hydroxypropylcellulose) (HPC)) is reported as 109 % of control, the T/C (dose: 200.0 mg/kg/injection, schedule: Q01DX001 (ip), vehicle: Klucel (hydroxypropylcellulose) (HPC)) is reported as 100 % of control and the T/C [8] is reported as 100 % of control. The T/C (dose: 400.0 mg/kg/injection, schedule: Q01DX001 (ip), vehicle: Klucel (hydroxypropylcellulose) (HPC)) was 113 % of control and the T/C [9] was 116 % of control.
In the case of `CC1CC=C(C2CC(C)CC(N(C)C)C2=N)CC1` (stereo not given), the T/C (dose: 12.5 mg/kg/injection, schedule: Q01DX009 (sc), vehicle: olive oil, sesame oil, peanut oil) is reported as 104 % of control, the T/C (dose: 25.0 mg/kg/injection, schedule: Q01DX009 (sc), vehicle: olive oil, sesame oil, peanut oil) is reported as 109 % of control and the T/C (dose: 50.0 mg/kg/injection, schedule: Q01DX009 (sc), vehicle: olive oil, sesame oil, peanut oil) is reported as 113 % of control. The T/C (dose: 100.0 mg/kg/injection, schedule: Q04DX003 (sc), vehicle: olive oil, sesame oil, peanut oil) was 91 % of control, the T/C (dose: 200.0 mg/kg/injection, schedule: Q04DX003 (sc), vehicle: olive oil, sesame oil, peanut oil) was 104 % of control and the T/C (dose: 400.0 mg/kg/injection, schedule: Q04DX003 (sc), vehicle: olive oil, sesame oil, peanut oil) was 116 % of control.
With `CNC(C)COc1ccccc1` (stereo not given) the T/C [10] was 104 % of control, the T/C [11] was 100 % of control and the T/C (dose: 100.0 mg/kg/injection, schedule: Q04DX003 (ip), vehicle: saline) was 90 % of control.
For `Nc1nc(N=Nc2ccc(O)cc2)cc(=O)[nH]1`, the T/C (dose: 50.0 mg/kg/injection, schedule: Q01DX009 (ip), vehicle: other) was 106 % of control, the T/C (dose: 100.0 mg/kg/injection, schedule: Q01DX009 (ip), vehicle: other) was 110 % of control and the T/C (dose: 200.0 mg/kg/injection, schedule: Q01DX009 (ip), vehicle: other) was 103 % of control. For the same compound, the T/C (dose: 400.0 mg/kg/injection, schedule: Q01DX009 (ip), vehicle: other) was 112 % of control.
